From PMC10724690, “Deciphering specificity and cross-reactivity in tachykinin NK1 and NK2 receptors” (The Journal of Biological Chemistry, 2023)
Where no end group is shown, it is not given here.

Key:
[1] = target: T1, NK2R (Homo sapiens, UniProt P21452); test: IP3 (IP accumulation) assay, wildtype NK2R; format: cell-based; conditions: for Emax: Fig 3a, alanine scan of NKA, dose response, IP accumulation ([3H]inositol, SPA) in transfected COS7 cells, 10 mM LiCl, 150 min 37 °C, four-parameter fit
T1 construct: host or cells: COS7
T1 sequence (P21452 1-398): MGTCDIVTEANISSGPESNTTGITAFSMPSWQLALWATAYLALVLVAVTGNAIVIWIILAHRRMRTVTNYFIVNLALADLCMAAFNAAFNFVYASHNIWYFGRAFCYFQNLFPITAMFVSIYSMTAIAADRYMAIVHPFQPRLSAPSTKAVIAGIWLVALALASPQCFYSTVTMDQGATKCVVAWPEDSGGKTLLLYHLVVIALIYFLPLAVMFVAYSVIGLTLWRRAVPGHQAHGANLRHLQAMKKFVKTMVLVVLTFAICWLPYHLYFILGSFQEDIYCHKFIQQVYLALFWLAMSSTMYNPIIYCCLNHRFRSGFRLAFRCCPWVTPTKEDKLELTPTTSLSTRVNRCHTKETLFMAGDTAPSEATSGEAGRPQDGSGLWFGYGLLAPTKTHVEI
Description: (§1) COS7 cells (derived from African green monkey kidney fibroblast and originally bought from ThermoFisher) were maintained in Dulbecco´s Modified Eagle´s Medium 1885 with GlutaMAX supplemented with 10% fetal bovine serum (Sigma-Aldrich), 100 units/ml penicillin and 100 μg/ml streptomycin at 37 °C with 10% CO2. COS7 cells were plated in either clear-, white-, or white with clear bottom 96-well plates that were coated with poly-D-lysine (Sigma-Aldrich) 30 min prior to cell seeding (20.000 cells/well). The following day plates were transiently transfected using calcium precipitation with 200 ng/well DNA in a culture medium with the addition of 100 μM (final concentration) Chloroquine. Transfection was stopped 5 h later with the addition of a fresh maintenance medium. Fig. […] COS7 cells seeded in clear 96-well plates were incubated with 0.5 μCi/ml myo [3H]inositol (PerkinElmer) in 100 μl growth medium over night following the transfection. The subsequent day cells were washed twice with 200 μl/well HBSS (GIBCO, Life Technologies) and pre-incubated for 5 min at 37 °C with 100 μl/well HBSS buffer supplemented with 10 mM LiCl. Ligand addition was followed by 150 min incubation at 37 °C. To stop ligand incubation, cells were lysed with 40 μl 10 mM formic acid followed by 30 min incubation on ice. 35 μl of the lysate was transferred to white 96-well plates together with 60 μl of 1:8 diluted YSi SPA scintillation beads (PerkinElmer). Plates were sealed and vigorously shaken for 15 min followed by 5 min centrifugation at 1500 rpm. Measurements (scintillation) were recorded on a Microbeta (PerkinElmer) after a 4 h delay and determinations were made in duplicates. All dose-response curves have been calculated using Prism 10 software (GraphPad Software) non-linear regression with four parameters. All data are shown as mean ± SEM unless stated otherwise and consist of two technical replicates from three biological replicates.

[2] = target: T2, NK1R-R177Q (Homo sapiens, UniProt P25103, R177Q); test: IP3 activation assay, NK1R-R177Q; format: cell-based; conditions: COS-7
T2 construct: host or cells: COS7
T2 sequence (P25103 whole entry R177Q): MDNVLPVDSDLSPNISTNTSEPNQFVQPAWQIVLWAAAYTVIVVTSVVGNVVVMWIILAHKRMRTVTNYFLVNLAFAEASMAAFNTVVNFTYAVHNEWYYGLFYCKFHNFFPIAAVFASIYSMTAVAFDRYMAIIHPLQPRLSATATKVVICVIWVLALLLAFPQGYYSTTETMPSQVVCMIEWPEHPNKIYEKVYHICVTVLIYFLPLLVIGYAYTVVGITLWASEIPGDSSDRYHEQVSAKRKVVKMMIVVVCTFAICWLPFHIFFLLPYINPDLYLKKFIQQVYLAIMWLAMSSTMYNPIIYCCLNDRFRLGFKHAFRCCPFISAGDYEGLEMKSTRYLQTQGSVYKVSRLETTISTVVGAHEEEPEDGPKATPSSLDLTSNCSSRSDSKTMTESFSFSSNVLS
Description: as §1, with “Ligand addition was followed by 150 min incubation at 37 °C. To stop ligand incubation, cells were lysed with 40 μl 10 mM formic acid followed by 30 min incubation on ice. 35 μl of the lysate was transferred to white 96-well plates together with 60 μl of 1:8 diluted YSi SPA scintillation beads (PerkinElmer). Plates were sealed and vigorously shaken for 15 min followed by 5 min centrifugation at 1500 rpm.” left out, “All data are shown as mean ± SEM unless stated otherwise and consist of two technical replicates from three biological replicates.” left out

[3] = target: T3, NK1R (Homo sapiens, UniProt P25103); test: IP3 (IP accumulation) assay, wildtype NK1R; format: cell-based
T3 construct: host or cells: COS7
T3 sequence (P25103 whole entry): as the sequence (P25103 whole entry R177Q) above, with Q177R counted along it
Description: as §1, with “Ligand addition was followed by 150 min incubation at 37 °C. To stop ligand incubation, cells were lysed with 40 μl 10 mM formic acid followed by 30 min incubation on ice. 35 μl of the lysate was transferred to white 96-well plates together with 60 μl of 1:8 diluted YSi SPA scintillation beads (PerkinElmer). Plates were sealed and vigorously shaken for 15 min followed by 5 min centrifugation at 1500 rpm.” left out, “All data are shown as mean ± SEM unless stated otherwise and consist of two technical replicates from three biological replicates.” left out

[4] = target: T4, NK1R-R177K (Homo sapiens, UniProt P25103, R177K); test: BRET-based cAMP assay, NK1R-R177K; format: cell-based; conditions: COS-7
T4 construct: host or cells: COS7
T4 sequence (P25103 whole entry R177K): as the sequence (P25103 whole entry R177Q) above, with Q177K counted along it
Description: (§2) COS7 cells (derived from African green monkey kidney fibroblast and originally bought from ThermoFisher) were maintained in Dulbecco´s Modified Eagle´s Medium 1885 with GlutaMAX supplemented with 10% fetal bovine serum (Sigma-Aldrich), 100 units/ml penicillin and 100 μg/ml streptomycin at 37 °C with 10% CO2. COS7 cells were plated in either clear-, white-, or white with clear bottom 96-well plates that were coated with poly-D-lysine (Sigma-Aldrich) 30 min prior to cell seeding (20.000 cells/well). The following day plates were transiently transfected using calcium precipitation with 200 ng/well DNA in a culture medium with the addition of 100 μM (final concentration) Chloroquine. Transfection was stopped 5 h later with the addition of a fresh maintenance medium. Fig. […] The intracellular level of cAMP was monitored in real-time using bioluminescence resonance energy transfer (BRET). This was achieved by implementing a construct consisting of a cAMP binding protein (Exchange protein activated by cAMP (Epac)) which has been flanked by a BRET pair consisting of Renilla luciferase (Rluc) and yellow fluorescent protein (YFP). […] The BRET signal was calculated as the ratio of emission intensity at 535 nm (citrine) to the emission intensity at 475 nm (luciferase). […] All dose-response curves have been calculated using Prism 10 software (GraphPad Software) non-linear regression with four parameters. […]

[5] = target: T3, NK1R; test: BRET-based cAMP assay, wildtype NK1R; format: cell-based; conditions: COS-7, Fig 7d, NK1R WT, ligand NKA (by identity with Fig 5b values)
Description: as §2

[6] = target: T2, NK1R-R177Q; test: BRET-based cAMP assay, NK1R-R177Q; format: cell-based; conditions: COS-7
Description: as §2

[7] = target: T1, NK2R; conditions: ref [19], cited from earlier work
Source text: In sharp contrast, NKA-D4 and NKA6-10 are found to be critical for activity.

EC50 [1] [nM]	Emax [1]	Compound	further results
0.715	–	CSCC[C@H](NC(=O)[C@H](CC(C)C)NC(=O)CNC(=O)[C@@H](NC(=O)[C@H](Cc1ccccc1)NC(=O)[C@H](CO)NC(=O)[C@H](CC(=O)O)NC(=O)[C@@H](NC(=O)[C@H](CCCCN)NC(=O)[C@H](C)N)[C@@H](C)O)C(C)C)C(N)=O [Ala1]	–
–	–	CSCC[C@H](NC(=O)[C@H](CC(C)C)NC(=O)CNC(=O)[C@@H](NC(=O)[C@H](Cc1ccccc1)NC(=O)[C@H](CO)NC(=O)[C@H](CC(=O)O)NC(=O)[C@@H](NC(=O)[C@H](CCCCN)NC(=O)[C@@H](N)Cc1c[nH]cn1)[C@@H](C)O)C(C)C)C(N)=O [NKA, neurokinin A]	Emax [2]: 59.3%; Emax ([3]; COS-7, Fig 7c, IP3 activation assay, NK1R WT, ligand NKA (by identity with Fig 5a values)): 100%; Emax ([3]; COS-7, Fig 5a, IP3 assay, NK1R WT in COS7 cells): 100%; Emax [4]: 10.7%; Emax [5]: 109%; Emax [6]: 13.1%
–	1066	Ala4: NKA variant of the alanine scan, alanine in position 4 (Asp) (HKTASFVGLM; ends and bridges not checked; UniProt P20366 98-107, looked up, variant D4A)	–
–	178	Ala7: NKA variant of the alanine scan, alanine in position 7 (HKTDSFAGLM; ends and bridges not checked; UniProt P20366 98-107, looked up, variant V7A)	–
–	136	Ala9: NKA variant of the alanine scan, alanine in position 9 (HKTDSFVGAM; ends and bridges not checked; UniProt P20366 98-107, looked up, variant L9A)	–
0.68	–	HATDSFVGLM-NH2 [Ala2]	–
0.598	–	HKADSFVGLM-NH2 [Ala3]	–
25.9	–	HKTDAFVGLM-NH2 [Ala5]	–
31.9	–	HKTDSFVGLA-NH2 [Ala10]	–
–	–	KDSFVGL(γ-lactam)M-NH2 [GR64349]	selectivity ([7]; NK2R agonist selectivity): most selective NK2R agonist reported so far; agonist character [7]: full agonist
